Source: doi:10.1101/2025.04.25.650653, “Hierarchical small molecule inhibition of MYST acetyltransferases” (bioRxiv, 2025)
Where “and” joins values, the source holds several entries; their conditions need not be identical. Identical values can stand only once.

Tested on: histone modifications in MCF-7 cells
Test: Histone modification analysis by bottom-up LC-MS/MS
Format: cell-based
Conditions: for Ratio, H2A1_12_17 unmod / Ratio, H2A3_12_17 K15me1: MCF-7; for Ratio, H3_3_8 K4me1 / Ratio, H3_3_8 unmod / Ratio, H3_54_63 unmod / Ratio, H3_41_49 unmod: Replicates 1-3
Description: In this approach. […] Histones are then extracted from cell pellets and chemically derivatized with propionic anhydride, digested with trypsin, subjected to a second round of propionylation, and analyzed by LC-MS/MS. Measuring the relative intensity of modified versus unmodified forms of individual histone peptides enables simultaneous monitoring of multiple potential biomarkers of MYST inhibition. To minimize false positives, we focused on abundant and reproducible modifications (average stoichiometry of greater than 1% across triplicate samples, standard deviation less than or equal to the average measurement). To account for potential histone modification crosstalk, changes in both acetylated and methylated peptides were evaluated. 38 modified peptides passed this reproducible detection threshold including several established KAT biomarkers[41] including H3K9Ac (KAT2A/B), H3K18Ac (KAT3A/B), H3K14Ac (KAT7), H3K23Ac (KAT6A/B), H4K16Ac (KAT8), and H2A.ZK4/K7Ac (KAT5; Fig. 4B).
Histone modification analysis
MCF-7 cells were cultured at 37 °C under 5% CO2 in EMEM (Quality Biological, 112-016-101) with 0.01 mg/mL human recombinant insulin (Sigma Aldrich, 91077C), 2 mM L-glutamine (Quality Biological, 118- […]
human recombinant insulin.
1119, WM-3835). Following 24 h inhibitor treatment, cells were washed with ice-cold 1× PBS and scraped in 150 µL of Nuclear Isolation Buffer (NIB) containing 0.1% NP-40 for histone extraction using a modified protocol from the Garcia laboratory. 9 Briefly, cell suspensions were incubated on ice for 5 minutes, and […]
nuclei were pelleted by centrifugation (600 rcf, 4°C, 5 min). Pelleted nuclei were washed twice with 150 μL of detergent-free NIB buffer, followed by centrifugation (600 rcf, 4°C, 5 min) to remove all detergent.
Nuclei were then resuspended in 400 μL of 0.4 N H₂SO₄ and rotated at 4°C overnight for acid extraction of histones. The following day, samples were centrifuged (11,000 rcf, 4°C, 10 min) and the histone-containing supernatant was transferred to a fresh tube. Trichloroacetic acid (100% TCA) was added to achieve a final concentration of 20% (v/v), tubes were inverted once to mix, and histone precipitation was performed on ice for at least 3 hours or overnight at 4°C. Precipitated histones were collected by centrifugation (11,000 rcf, 4°C, 10 min) and the supernatant carefully removed, leaving a visible film of histones on the tube wall or bottom. Histone pellets were subjected to sequential washes with 1 mL of ice-cold acidified acetone (0.1% 12 N HCl) followed by 1 mL of 100% ice-cold acetone, with centrifugation (11,000 rcf, 4°C, 5 min) after each wash. Samples were air-dried at room temperature, resuspended in 40 µL of ddH₂O, and protein […]
analysis, 1-2 µg of purified histones were loaded per lane and processed according to the general immunoblotting protocol described in General Materials and Methods.
Analysis of histone modifications by LC-MS/MS
Preparation of histone samples for LC-MS/MS was performed analogously to the procedure for immunoblotting above, with the following modifications. MCF7 cells (4.2 × 106) were seeded in 15 cm dishes and treated with PF-9363 or vehicle. Experiments were performed in triplicate. Following treatment and PBS washing, cells were scraped and collected in 15 mL falcon tubes, pelleted (500 rcf, 4°C, 5 min), resuspended in 1 mL cold PBS, transferred to microcentrifuge tubes, and pelleted again before flash-freezing in liquid nitrogen for storage at -80°C. For extraction, cell pellets (~100 μL) were resuspended in NIB buffer at a 1:10 ratio, and cells were lysed with NIB buffer containing 0.2% NP-40 for 8 minutes on ice. Nuclei were pelleted at 1,000 rcf for 8 minutes and washed three times with 500 μL detergent-free NIB buffer. Histones were extracted using 800 μL of 0.2 M H₂SO₄, and after centrifugation (3,400 rcf, 4°C, 10

[1] = TKQTAR(H3_3_8), PF-9363 0.1 v 30
[2] = TKQTAR(H3_3_8), PF-9363 (0.1 mM)
[3] = TKQTAR(H3_3_8), PF-9363 (30 mM)

COc1cccc(OC)c1S(=O)(=O)Nc1noc2cc(Cn3cccn3)cc(OC)c12 [PF-9363]
Ratio, H2A1_12_17 unmod (Replicate 2, PF-9363 30): 0.4993 | Ratio, H2A3_12_17 K15me1 (Replicate 2, PF-9363 30): 0.4897 | Ratio, H2A1_12_17 unmod (Replicate 3, PF-9363 0.1): 0.4868 | Ratio, H2A3_12_17 K15me1 (Replicate 3, PF-9363 0.1): 0.466 | Ratio, H2A1_12_17 unmod (Replicate 3, PF-9363 1): 0.5044 | Ratio, H2A3_12_17 K15me1 (Replicate 3, PF-9363 1): 0.4869 | Ratio, H2A1_12_17 unmod (Replicate 3, PF-9363 10): 0.4939 | Ratio, H2A3_12_17 K15me1 (Replicate 3, PF-9363 10): 0.4755 | Ratio, H2A1_12_17 unmod (Replicate 3, PF-9363 30): 0.5006 | Ratio, H2A3_12_17 K15me1 (Replicate 3, PF-9363 30): 0.4892 | Fold-change 0.1 v 30, H3_3_8 K4me1 [1]: 1.02 | Fold-change 0.1 v 30, H3_3_8 unmod [1]: 1.00 | Average ratio, H3_3_8 K4me1 [2]: 0.0973 | Average ratio, H3_3_8 unmod [2]: 0.8963 | Average ratio, H3_3_8 K4me1 [3]: 0.0953 | Average ratio, H3_3_8 unmod [3]: 0.8973 | Ratio, H3_3_8 K4me1 (TKQTAR(H3_3_8), dose 0.1): 0.09461 and 0.103 and 0.09428 | Ratio, H3_3_8 unmod (TKQTAR(H3_3_8), dose 0.1): 0.9002 and 0.8874 and 0.9011 | Ratio, H3_3_8 K4me1 (TKQTAR(H3_3_8), dose 1): 0.09313 and 0.09156 and 0.09495 | Ratio, H3_3_8 unmod (TKQTAR(H3_3_8), dose 1): 0.903 and 0.9014 and 0.9006 | Ratio, H3_3_8 K4me1 (TKQTAR(H3_3_8), dose 10): 0.1087 and 0.09351 and 0.1018 | Ratio, H3_3_8 unmod (TKQTAR(H3_3_8), dose 10): 0.8856 and 0.9033 and 0.8936 | Ratio, H3_3_8 K4me1 (TKQTAR(H3_3_8), dose 30): 0.09818 and 0.09712 and 0.09049 | Ratio, H3_3_8 unmod (TKQTAR(H3_3_8), dose 30): 0.8954 and 0.8931 and 0.9034 | Fold-change 0.1 v 30, H3_54_63 unmod (YQKSTELLIR(H3_54_63), PF-9363 0.1 v 30): 0.99 | Average ratio, H3_54_63 unmod (YQKSTELLIR(H3_54_63), PF-9363 (0.1 mM)): 0.9888 | Average ratio, H3_54_63 unmod (YQKSTELLIR(H3_54_63), PF-9363 (30 mM)): 0.9942 | Ratio, H3_54_63 unmod (YQKSTELLIR(H3_54_63), dose 0.1): 0.9974 and 0.9808 and 0.9881 | Ratio, H3_54_63 unmod (YQKSTELLIR(H3_54_63), dose 1): 0.9878 and 0.9887 and 0.9945 | Ratio, H3_54_63 unmod (YQKSTELLIR(H3_54_63), dose 10): 0.9895 and 0 and 0.9781 | Ratio, H3_54_63 unmod (YQKSTELLIR(H3_54_63), dose 30): 0.9962 and 0.9919 and 0.9944 | Fold-change 0.1 v 30, H3_41_49 unmod (YRPGTVALR(H3_41_49), PF-9363 0.1 v 30): 1.00 | Average ratio, H3_41_49 unmod (YRPGTVALR(H3_41_49), PF-9363 (0.1 mM)): 0.9999 | Average ratio, H3_41_49 unmod (YRPGTVALR(H3_41_49), PF-9363 (30 mM)): 0.9999 | Ratio, H3_41_49 unmod (YRPGTVALR(H3_41_49), dose 0.1): 0.9999 and 1 and 0.9998 | Ratio, H3_41_49 unmod (YRPGTVALR(H3_41_49), dose 1): 0.9993 and 1 and 0.9999 | Ratio, H3_41_49 unmod (YRPGTVALR(H3_41_49), dose 10): 0.9997 and 1 and 0.9999 | Ratio, H3_41_49 unmod (YRPGTVALR(H3_41_49), dose 30): 1 (2×) and 0.9996 | Fold-change 0.1 v 30, H2A1_1_11 K5ac (average ratio 0.1 v 30): 0.99 | Fold-change 0.1 v 30, H2A1_4_11 K5ac (average ratio 0.1 v 30): 0.88 | Fold-change 0.1 v 30, H2A1_4_11 K9ac (average ratio 0.1 v 30): 1.17 | Fold-change 0.1 v 30, H2A1_4_11 unmod (average ratio 0.1 v 30): 0.99 | Fold-change 0.1 v 30, H2A1_36_42 unmod (average ratio 0.1 v 30): 1.00 | Fold-change 0.1 v 30, H2A3_36_42 unmod (average ratio 0.1 v 30): 1.00 | Fold-change 0.1 v 30, H2AJ_4_11 K5acK9ac (average ratio 0.1 v 30): 0.98 | Fold-change 0.1 v 30, H2AV_1_19 K4ac (average ratio 0.1 v 30): 0.98 | Fold-change 0.1 v 30, H2AV_1_19 unmod (average ratio 0.1 v 30): 1.14 | Fold-change 0.1 v 30, H2AX_36_42 unmod (average ratio 0.1 v 30): 1.00 | Fold-change 0.1 v 30, H2AZ_1_19 K11ac (average ratio 0.1 v 30): 0.64 | Fold-change 0.1 v 30, H2AZ_1_19 unmod (average ratio 0.1 v 30): 0.92 | Fold-change 0.1 v 30, H3_73_83 K79me1 (average ratio 0.1 v 30): 1.08 | Fold-change 0.1 v 30, H3_73_83 K79me2 (average ratio 0.1 v 30): 1.32 | Fold-change 0.1 v 30, H3_73_83 unmod (average ratio 0.1 v 30): 0.97 | Fold-change 0.1 v 30, H4_4_17 K12acK16ac (average ratio 0.1 v 30): 0.05 | Fold-change 0.1 v 30, H4_4_17 unmod (average ratio 0.1 v 30): 1.46 | Fold-change 0.1 v 30, H4_20_23 K20me1 (average ratio 0.1 v 30): 1.30 | Fold-change 0.1 v 30, H4_20_23 unmod (average ratio 0.1 v 30): 1.38
